# System: T47D cells expressing mutant PI3Ka (H1047R)
# Assay: In vitro cell proliferation, T47D cells (CellTiter-Glo)
# Type: cell-based
# Details: Homo sapiens, T47D, 72 h, inhibition of proliferation, read-out: Avg T-47D EC50
# How it was run: (§1)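 Proliferation was read by CellTiter-Glo luminescence after 72 h of exposure to 10-point compound dilutions at 37 °C and 5% CO2. T47D (RPMI, 10% FBS, insulin 0.2 units/mL) and SKBR3 (McCoys 5a, 10% FBS) cells were seeded at 1,500 cells/well. EC50 was fitted from inhibition relative to DMSO and 10 uM Alpelisib.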
row,SMILES,EC50 [nM]
1,Cc1cc([C@@H](C)Nc2ccccc2C(=O)O)c2cc(N3CCn4nc(C)cc4C3)n(C)c(=O)c2c1 [Example 446],1 to 500
2,Cc1csc(N2CCN(c3cc4c([C@@H](C)Nc5ccccc5C(=O)O)cc(F)cc4c(=O)n3C)CC2)n1 [Example 453],1 to 500
3,C[C@@H](Nc1cccc(F)c1C(=O)O)c1cc(F)cc2c(=O)n(C)c(C3CC3)cc12 [Example 454],1 to 500
4,C[C@@H](Nc1ccccc1C(=O)O)c1cc(F)cc2c(=O)n(C)c(C3CC3)cc12 [Example 455],1 to 500
5,Cc1ccc(N2CCN(c3cc4c([C@@H](C)Nc5cccc(F)c5C(=O)O)cc(F)cc4c(=O)n3C)CC2)c(C)n1 [Example 456],1 to 500
6,C[C@@H](Nc1ccccc1C(=O)O)c1cc(F)cc2c(=O)n(C)c(-c3cnc(OC4CC4)c(F)c3)cc12 [Example 458],1 to 500
7,C[C@@H](Nc1ccccc1C(=O)O)c1cc(F)cc2c(=O)n(C)c(N3C4CCC3CN(CC(F)(F)F)C4)cc12 [Example 464],1 to 500
8,Cc1ncncc1N1CCN(c2cc3c([C@@H](C)Nc4ccccc4C(=O)O)cc(F)cc3c(=O)n2C)CC1 [Example 465],1 to 500
9,C[C@@H](Nc1ccccc1C(=O)O)c1cc(F)cc2c(=O)n(C)c(N3CCN(c4nccs4)CC3)cc12 [Example 466],1 to 500
10,Cc1cnc(N2CCN(c3cc4c([C@@H](C)Nc5ccccc5C(=O)O)cc(F)cc4c(=O)n3C)CC2)s1 [Example 467],1 to 500
11,Cc1ccc(-c2ncc(-c3cc4c([C@@H](C)Nc5ccccc5C(=O)O)cc(F)cc4c(=O)n3C)cc2F)c(C)n1 [Example 472],1 to 500
12,Cc1ncc(N2CCN(c3cc4c([C@@H](C)Nc5cccc(F)c5C(=O)O)cc(F)cc4c(=O)n3C)CC2)s1 [Example 477],1 to 500
13,Cc1ncc(N2CCN(c3cc4c([C@@H](C)Nc5ccccc5C(=O)O)cc(F)cc4c(=O)n3C)CC2)s1 [Example 478],1 to 500
14,C[C@@H](Nc1ccccc1C(=O)O)c1cc(F)cc2c(=O)n(C)c(-c3cc(F)c4nn(C)cc4c3)cc12 [Example 483],500 to 2000
15,C[C@@H](Nc1cccc(F)c1C(=O)O)c1cc(F)cc2c(=O)n(C)c(-c3cc(F)c4nn(C)cc4c3)cc12 [Example 484],500 to 2000
16,Cc1cc([C@@H](C)Nc2nccnc2C(=O)O)c2cc(N3CCN(CC(F)(F)F)CC3)n(C)c(=O)c2c1 [Example 485],2000 to 15000

# System: SKBR3 cells express WT PI3Ka
# Assay: In vitro cell proliferation, SKBR3 cells (CellTiter-Glo)
# Type: cell-based
# Details: Homo sapiens, SK-BR-3, 72 h, inhibition of proliferation
# How it was run: as §1
row,SMILES,EC50 [µM]
1,Cc1cc([C@@H](C)Nc2ccccc2C(=O)O)c2cc(N3CCn4nc(C)cc4C3)n(C)c(=O)c2c1 [Example 446],> 15
2,Cc1csc(N2CCN(c3cc4c([C@@H](C)Nc5ccccc5C(=O)O)cc(F)cc4c(=O)n3C)CC2)n1 [Example 453],2 to 15
3,C[C@@H](Nc1cccc(F)c1C(=O)O)c1cc(F)cc2c(=O)n(C)c(C3CC3)cc12 [Example 454],> 15
4,C[C@@H](Nc1ccccc1C(=O)O)c1cc(F)cc2c(=O)n(C)c(C3CC3)cc12 [Example 455],> 15
5,Cc1ccc(N2CCN(c3cc4c([C@@H](C)Nc5cccc(F)c5C(=O)O)cc(F)cc4c(=O)n3C)CC2)c(C)n1 [Example 456],2 to 15
6,C[C@@H](Nc1ccccc1C(=O)O)c1cc(F)cc2c(=O)n(C)c(-c3cnc(OC4CC4)c(F)c3)cc12 [Example 458],> 15
7,C[C@@H](Nc1ccccc1C(=O)O)c1cc(F)cc2c(=O)n(C)c(N3C4CCC3CN(CC(F)(F)F)C4)cc12 [Example 464],2 to 15
8,Cc1ncncc1N1CCN(c2cc3c([C@@H](C)Nc4ccccc4C(=O)O)cc(F)cc3c(=O)n2C)CC1 [Example 465],2 to 15
9,C[C@@H](Nc1ccccc1C(=O)O)c1cc(F)cc2c(=O)n(C)c(N3CCN(c4nccs4)CC3)cc12 [Example 466],> 15
10,Cc1cnc(N2CCN(c3cc4c([C@@H](C)Nc5ccccc5C(=O)O)cc(F)cc4c(=O)n3C)CC2)s1 [Example 467],2 to 15
11,Cc1ccc(-c2ncc(-c3cc4c([C@@H](C)Nc5ccccc5C(=O)O)cc(F)cc4c(=O)n3C)cc2F)c(C)n1 [Example 472],2 to 15
12,Cc1ncc(N2CCN(c3cc4c([C@@H](C)Nc5cccc(F)c5C(=O)O)cc(F)cc4c(=O)n3C)CC2)s1 [Example 477],> 15
13,Cc1ncc(N2CCN(c3cc4c([C@@H](C)Nc5ccccc5C(=O)O)cc(F)cc4c(=O)n3C)CC2)s1 [Example 478],> 15
14,C[C@@H](Nc1ccccc1C(=O)O)c1cc(F)cc2c(=O)n(C)c(-c3cc(F)c4nn(C)cc4c3)cc12 [Example 483],> 15
15,C[C@@H](Nc1cccc(F)c1C(=O)O)c1cc(F)cc2c(=O)n(C)c(-c3cc(F)c4nn(C)cc4c3)cc12 [Example 484],> 15
16,Cc1cc([C@@H](C)Nc2nccnc2C(=O)O)c2cc(N3CCN(CC(F)(F)F)CC3)n(C)c(=O)c2c1 [Example 485],2 to 15

# System: phosphorylation of AKT (pAKT) in T47D cells expressing mutant PI3Ka (H1047R)
# Assay: In vitro cell pAKT (Ser473) HTRF, T47D cells
# Type: cell-based
# Details: Homo sapiens, T47D, 6 h, cellular pAKT, T47D cells, mutant PI3Ka (H1047R), 6 hours; read-out: Avg T-47D IC50
# How it was run: (§2)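 pAKT (Ser473) was quantified by HTRF in lysates from cells exposed 6 h at 37 °C to 10-point compound series, with T47D in insulin-supplemented RPMI/10% FBS and SKBR3 in McCoy's 5a/10% FBS. Controls: 0.1% DMSO (high) and 10 uM alpelisib (low). IC50 from sigmoidal curve fitting.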
row,SMILES,IC50 [nM]
1,Cc1cc([C@@H](C)Nc2ccccc2C(=O)O)c2cc(N3CCn4nc(C)cc4C3)n(C)c(=O)c2c1 [Example 446],1 to 500
2,Cc1csc(N2CCN(c3cc4c([C@@H](C)Nc5ccccc5C(=O)O)cc(F)cc4c(=O)n3C)CC2)n1 [Example 453],1 to 500
3,C[C@@H](Nc1cccc(F)c1C(=O)O)c1cc(F)cc2c(=O)n(C)c(C3CC3)cc12 [Example 454],1 to 500
4,C[C@@H](Nc1ccccc1C(=O)O)c1cc(F)cc2c(=O)n(C)c(C3CC3)cc12 [Example 455],1 to 500
5,Cc1ccc(N2CCN(c3cc4c([C@@H](C)Nc5cccc(F)c5C(=O)O)cc(F)cc4c(=O)n3C)CC2)c(C)n1 [Example 456],1 to 500
6,C[C@@H](Nc1ccccc1C(=O)O)c1cc(F)cc2c(=O)n(C)c(-c3cnc(OC4CC4)c(F)c3)cc12 [Example 458],1 to 500
7,C[C@@H](Nc1ccccc1C(=O)O)c1cc(F)cc2c(=O)n(C)c(N3C4CCC3CN(CC(F)(F)F)C4)cc12 [Example 464],1 to 500
8,Cc1ncncc1N1CCN(c2cc3c([C@@H](C)Nc4ccccc4C(=O)O)cc(F)cc3c(=O)n2C)CC1 [Example 465],1 to 500
9,C[C@@H](Nc1ccccc1C(=O)O)c1cc(F)cc2c(=O)n(C)c(N3CCN(c4nccs4)CC3)cc12 [Example 466],1 to 500
10,Cc1cnc(N2CCN(c3cc4c([C@@H](C)Nc5ccccc5C(=O)O)cc(F)cc4c(=O)n3C)CC2)s1 [Example 467],1 to 500
11,Cc1ccc(-c2ncc(-c3cc4c([C@@H](C)Nc5ccccc5C(=O)O)cc(F)cc4c(=O)n3C)cc2F)c(C)n1 [Example 472],1 to 500
12,Cc1ncc(N2CCN(c3cc4c([C@@H](C)Nc5cccc(F)c5C(=O)O)cc(F)cc4c(=O)n3C)CC2)s1 [Example 477],1 to 500
13,Cc1ncc(N2CCN(c3cc4c([C@@H](C)Nc5ccccc5C(=O)O)cc(F)cc4c(=O)n3C)CC2)s1 [Example 478],1 to 500
14,C[C@@H](Nc1ccccc1C(=O)O)c1cc(F)cc2c(=O)n(C)c(-c3cc(F)c4nn(C)cc4c3)cc12 [Example 483],1 to 500
15,C[C@@H](Nc1cccc(F)c1C(=O)O)c1cc(F)cc2c(=O)n(C)c(-c3cc(F)c4nn(C)cc4c3)cc12 [Example 484],500 to 2000
16,Cc1cc([C@@H](C)Nc2nccnc2C(=O)O)c2cc(N3CCN(CC(F)(F)F)CC3)n(C)c(=O)c2c1 [Example 485],500 to 2000

# System: phosphorylation of AKT (pAKT) in SKBR3 cells express WT PI3Ka
# Assay: In vitro cell pAKT (Ser473) HTRF, SKBR3 cells
# Type: cell-based
# Details: Homo sapiens, SK-BR-3, 6 h, cellular pAKT
# How it was run: as §2
row,SMILES,IC50 [µM]
1,Cc1cc([C@@H](C)Nc2ccccc2C(=O)O)c2cc(N3CCn4nc(C)cc4C3)n(C)c(=O)c2c1 [Example 446],> 15
2,Cc1csc(N2CCN(c3cc4c([C@@H](C)Nc5ccccc5C(=O)O)cc(F)cc4c(=O)n3C)CC2)n1 [Example 453],> 15
3,C[C@@H](Nc1cccc(F)c1C(=O)O)c1cc(F)cc2c(=O)n(C)c(C3CC3)cc12 [Example 454],> 15
4,C[C@@H](Nc1ccccc1C(=O)O)c1cc(F)cc2c(=O)n(C)c(C3CC3)cc12 [Example 455],> 15
5,Cc1ccc(N2CCN(c3cc4c([C@@H](C)Nc5cccc(F)c5C(=O)O)cc(F)cc4c(=O)n3C)CC2)c(C)n1 [Example 456],2 to 15
6,C[C@@H](Nc1ccccc1C(=O)O)c1cc(F)cc2c(=O)n(C)c(-c3cnc(OC4CC4)c(F)c3)cc12 [Example 458],> 15
7,C[C@@H](Nc1ccccc1C(=O)O)c1cc(F)cc2c(=O)n(C)c(N3C4CCC3CN(CC(F)(F)F)C4)cc12 [Example 464],2 to 15
8,Cc1ncncc1N1CCN(c2cc3c([C@@H](C)Nc4ccccc4C(=O)O)cc(F)cc3c(=O)n2C)CC1 [Example 465],2 to 15
9,C[C@@H](Nc1ccccc1C(=O)O)c1cc(F)cc2c(=O)n(C)c(N3CCN(c4nccs4)CC3)cc12 [Example 466],2 to 15
10,Cc1cnc(N2CCN(c3cc4c([C@@H](C)Nc5ccccc5C(=O)O)cc(F)cc4c(=O)n3C)CC2)s1 [Example 467],2 to 15
11,Cc1ccc(-c2ncc(-c3cc4c([C@@H](C)Nc5ccccc5C(=O)O)cc(F)cc4c(=O)n3C)cc2F)c(C)n1 [Example 472],2 to 15
12,Cc1ncc(N2CCN(c3cc4c([C@@H](C)Nc5cccc(F)c5C(=O)O)cc(F)cc4c(=O)n3C)CC2)s1 [Example 477],2 to 15
13,Cc1ncc(N2CCN(c3cc4c([C@@H](C)Nc5ccccc5C(=O)O)cc(F)cc4c(=O)n3C)CC2)s1 [Example 478],2 to 15
14,C[C@@H](Nc1ccccc1C(=O)O)c1cc(F)cc2c(=O)n(C)c(-c3cc(F)c4nn(C)cc4c3)cc12 [Example 483],> 15
15,C[C@@H](Nc1cccc(F)c1C(=O)O)c1cc(F)cc2c(=O)n(C)c(-c3cc(F)c4nn(C)cc4c3)cc12 [Example 484],> 15
16,Cc1cc([C@@H](C)Nc2nccnc2C(=O)O)c2cc(N3CCN(CC(F)(F)F)CC3)n(C)c(=O)c2c1 [Example 485],> 15
